From patent publication US20240101572A1, “DIHYDROOXADIAZINONE COMPOUND AND PHARMACEUTICAL USE THEREOF” (Japan Tobacco Inc., priority 2022, published 2024)
pIC50: −log10 of the molar value. Like-named read-outs stand apart in the source and are kept apart here.

What was measured:
full-length human PLD2 = full-length human PLD2 (Homo sapiens (Human), UniProt O14939); assay: Evaluation of human PLD2 enzyme inhibitory activity (Amplex Red / choline oxidase fluorescence); type: biochemical
Summary of the method: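 Enzyme was N-terminal FLAG-tagged full-length human PLD2 (1-933), expressed in Expi293F cells and anti-FLAG purified. Compound (5% DMSO final) was incubated with enzyme (6 nmol/L solution) and 1,2-diheptanoyl-PC (6 mmol/L solution) in HEPES pH 7.5, KCl, EGTA, MgCl2, NP-40, BSA buffer for 60 min at room temperature. Choline was detected with Amplex Red/choline oxidase/HRP.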

full-length human PLD1 = full-length human PLD1 (Homo sapiens (Human), UniProt Q13393); assay: Evaluation of human PLD1 enzyme inhibitory activity (Amplex Red / choline oxidase fluorescence); type: biochemical
Chain of full-length human PLD1 (Q13393 other isoform, or with tags, fused parts or gaps): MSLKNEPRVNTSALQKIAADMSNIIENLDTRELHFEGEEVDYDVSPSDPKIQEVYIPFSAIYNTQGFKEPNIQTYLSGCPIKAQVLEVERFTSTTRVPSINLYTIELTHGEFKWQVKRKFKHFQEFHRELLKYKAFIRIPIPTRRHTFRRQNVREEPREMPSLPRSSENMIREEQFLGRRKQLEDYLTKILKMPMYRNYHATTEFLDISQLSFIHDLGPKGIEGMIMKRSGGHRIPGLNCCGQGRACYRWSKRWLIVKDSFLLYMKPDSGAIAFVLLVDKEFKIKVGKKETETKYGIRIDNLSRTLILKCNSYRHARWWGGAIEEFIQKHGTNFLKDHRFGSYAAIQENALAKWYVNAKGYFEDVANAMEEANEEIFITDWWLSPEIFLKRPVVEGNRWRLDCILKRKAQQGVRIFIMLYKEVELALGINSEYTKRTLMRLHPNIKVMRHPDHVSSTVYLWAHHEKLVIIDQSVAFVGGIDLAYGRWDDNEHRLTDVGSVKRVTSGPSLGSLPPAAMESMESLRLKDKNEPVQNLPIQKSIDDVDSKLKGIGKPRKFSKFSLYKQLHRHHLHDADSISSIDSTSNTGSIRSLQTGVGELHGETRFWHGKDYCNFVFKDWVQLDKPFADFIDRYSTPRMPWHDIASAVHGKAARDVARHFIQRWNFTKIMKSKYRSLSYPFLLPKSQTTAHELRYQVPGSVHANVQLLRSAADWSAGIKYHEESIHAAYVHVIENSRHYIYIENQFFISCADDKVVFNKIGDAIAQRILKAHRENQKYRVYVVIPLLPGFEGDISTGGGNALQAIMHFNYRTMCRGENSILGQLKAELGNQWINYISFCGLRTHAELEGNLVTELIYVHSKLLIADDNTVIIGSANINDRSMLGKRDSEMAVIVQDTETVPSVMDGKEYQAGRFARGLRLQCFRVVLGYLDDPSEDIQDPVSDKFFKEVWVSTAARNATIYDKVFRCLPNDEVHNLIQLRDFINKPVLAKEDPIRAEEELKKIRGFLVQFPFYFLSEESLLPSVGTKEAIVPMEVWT
Summary of the method: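 N-terminally FLAG-tagged full-length human PLD1 (1-1036), expressed in Expi293F and FLAG-purified, incubated with compound (5% DMSO final) and 1,2-diheptanoyl-sn-glycero-3-phosphocholine for 60 min at room temperature in HEPES pH 7.5 buffer. Released choline detected by Amplex Red/choline oxidase/HRP fluorescence.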

[1] = full-length human PLD2 enzyme, read-out: PLD2 IC50
[2] = full-length human PLD1 enzyme, read-out: PLD1 IC50

Chain of full-length human PLD2 (O14939 whole entry): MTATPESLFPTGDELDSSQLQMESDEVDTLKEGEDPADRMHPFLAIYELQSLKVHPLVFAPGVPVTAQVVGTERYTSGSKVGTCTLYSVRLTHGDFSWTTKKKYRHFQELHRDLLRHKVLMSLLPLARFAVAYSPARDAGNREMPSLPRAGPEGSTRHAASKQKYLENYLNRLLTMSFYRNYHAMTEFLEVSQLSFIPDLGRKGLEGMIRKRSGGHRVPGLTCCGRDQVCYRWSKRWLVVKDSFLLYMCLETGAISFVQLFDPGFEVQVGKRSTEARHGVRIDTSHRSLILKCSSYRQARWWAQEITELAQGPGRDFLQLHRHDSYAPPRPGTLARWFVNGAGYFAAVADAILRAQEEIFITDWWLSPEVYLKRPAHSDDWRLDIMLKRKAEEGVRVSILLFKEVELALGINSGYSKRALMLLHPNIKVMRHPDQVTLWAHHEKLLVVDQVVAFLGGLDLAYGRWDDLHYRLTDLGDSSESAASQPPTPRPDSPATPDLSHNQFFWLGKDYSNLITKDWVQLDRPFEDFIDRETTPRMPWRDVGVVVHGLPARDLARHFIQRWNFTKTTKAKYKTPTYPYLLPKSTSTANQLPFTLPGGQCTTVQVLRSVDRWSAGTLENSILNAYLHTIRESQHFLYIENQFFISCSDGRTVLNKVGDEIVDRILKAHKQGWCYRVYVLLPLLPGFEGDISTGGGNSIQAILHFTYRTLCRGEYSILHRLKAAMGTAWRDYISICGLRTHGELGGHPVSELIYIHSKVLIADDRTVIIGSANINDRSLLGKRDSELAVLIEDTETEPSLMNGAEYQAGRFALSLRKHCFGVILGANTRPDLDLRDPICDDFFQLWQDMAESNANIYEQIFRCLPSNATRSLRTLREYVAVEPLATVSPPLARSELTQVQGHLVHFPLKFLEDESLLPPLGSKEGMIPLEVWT

With `C[C@@H](C[C@H]1CC[C@]2(CC1)OC(=O)NN=C2c1cc(C#N)ccc1Br)NC(=O)c1cn(C)cn1` [Example 2-071] the pIC50 (full-length human PLD2; [1]) was > 8.00 and the pIC50 (full-length human PLD1; [2]) was 7.89.

For `C[C@@H](C[C@H]1CC[C@]2(CC1)OC(=O)NN=C2c1ccc(F)cc1Br)NC(=O)C1CC1` [Example 21], the pIC50 (full-length human PLD2; [1]) was 6.46 and the pIC50 (full-length human PLD1; [2]) was 6.51.

With `CNC(=O)C(=O)N[C@@H](C)C[C@H]1CC[C@]2(CC1)OC(=O)NN=C2c1cc(OC)ncc1Br` [Example 2-074] the pIC50 (full-length human PLD2; [1]) was > 8.00 and the pIC50 (full-length human PLD1; [2]) was 7.96.

`C[C@@H](CN1CCC2(CC1)OC(=O)NN=C2c1ccc(F)cc1Br)NC(=O)C(=O)NC12CC(C1)C2` [Example 202] gave a pIC50 (full-length human PLD2; [1]) of 5.90 and a pIC50 (full-length human PLD1; [2]) of 6.08.

For `C[C@@H](CC1CCC2(CC1)OC(=O)NN=C2c1ccncc1Br)NC(=O)c1cc(Cl)no1` (mixture of isomers) [Example 121], the pIC50 (full-length human PLD2; [1]) was > 8.00 and the pIC50 (full-length human PLD1; [2]) was > 8.00.

With `CNC(=O)/C=C/C(=O)N[C@@H](C)CN1CCC2(CC1)OC(=O)NN=C2c1cc(C#N)ccc1Br` [Example 2-041] the pIC50 (full-length human PLD2; [1]) was 6.99 and the pIC50 (full-length human PLD1; [2]) was 6.83.

In the case of `Cc1cc(Br)ccc1C1=NNC(=O)O[C@]12CC[C@@H](C[C@H](C)NC(=O)NC1CC1)CC2` [Example 210], the pIC50 (full-length human PLD2; [1]) was 5.96 and the pIC50 (full-length human PLD1; [2]) was 6.53.

`Cc1cc(C(=O)N[C@H](C)CN2CCC3(CC2)OC(=O)NN=C3c2ccc(F)cc2Br)[nH]n1` [Example 2-012] gave a pIC50 (full-length human PLD2; [1]) of 6.61 and a pIC50 (full-length human PLD1; [2]) of 5.69.

With `CNC(=O)C(=O)N[C@@H](C)C[C@]1(F)CC[C@@]2(CC1)OC(=O)NN=C2c1cc(C#N)ccc1Br` [Example 310] the pIC50 (full-length human PLD2; [1]) was > 8.00 and the pIC50 (full-length human PLD1; [2]) was 7.85.

For `[2H]C([2H])([2H])NC(=O)C(=O)N[C@@H](C)C[C@]1(C#N)CC[C@@]2(CC1)OC(=O)NN=C2c1cccc(F)c1Br` [Example 2-152], the pIC50 (full-length human PLD2; column 2 of continuation tables 2-12 to 2-14, read-out: human PLD2 enzyme inhibitory activity IC50) was > 8.00 and the pIC50 (full-length human PLD1; column 1 of continuation tables 2-12 to 2-14, read-out: human PLD1 enzyme inhibitory activity IC50) was 7.80.

`Cc1cc(C(=O)N[C@@H](C)C[C@H]2CC[C@]3(CC2)OC(=O)NN=C3c2ccc(S(C)(=O)=O)cc2Br)[nH]n1` [Example 31] was tested, and the pIC50 (full-length human PLD2; [1]) was > 8.00 and the pIC50 (full-length human PLD1; [2]) was 7.62.

`C[C@@H](C[C@H]1CC[C@]2(CC1)OC(=O)NN=C2c1ccc(F)cc1Cl)NC(=O)c1cc2cc(S(C)(=O)=O)ccc2[nH]1` [Example 62] gave a pIC50 (full-length human PLD2; [1]) of 6.65 and a pIC50 (full-length human PLD1; [2]) of 6.85.

In the case of `CNC(=O)C(=O)N[C@@H](C)C[C@H]1CC[C@]2(CC1)OC(=O)NN=C2c1cc(C#N)ccc1C` [Example 287], the pIC50 (full-length human PLD2; [1]) was > 8.00 and the pIC50 (full-length human PLD1; [2]) was 7.89.

Work on `Cc1cc(Cl)c(C2=NNC(=O)O[C@]23CC[C@@H](C[C@H](C)NC(=O)c2cc(C)n[nH]2)CC3)cn1` [Example 231] yielded a pIC50 (full-length human PLD2; [1]) of 7.92 and a pIC50 (full-length human PLD1; [2]) of 7.62.

For `C[C@@H](CN1CCC2(CC1)OC(=O)NN=C2c1ccc(F)cc1Cl)NC(=O)c1cn(C)nn1` [Example 94], the pIC50 (full-length human PLD2; [1]) was 7.22 and the pIC50 (full-length human PLD1; [2]) was 7.17.

`C[C@@H](C[C@H]1CC[C@]2(CC1)OC(=O)NN=C2c1ccc(F)cc1Br)NC(=O)c1cc2cc(F)ccc2[nH]1` [Example 13] was tested, and the pIC50 (full-length human PLD2; [1]) was > 8.00 and the pIC50 (full-length human PLD1; [2]) was 7.44.

In the case of `CNC(=O)C(=O)N[C@@H](C)CN1CCC2(CC1)OC(=O)NN=C2c1ccc(C#N)cc1Cl` [Example 168], the pIC50 (full-length human PLD2; [1]) was 7.46 and the pIC50 (full-length human PLD1; [2]) was 7.25.

With `CNC(=O)C(=O)N[C@@H](C)C[C@H]1CC[C@]2(CC1)OC(=O)NN=C2c1ccc(F)cc1I` [Example 139] the pIC50 (full-length human PLD2; [1]) was > 8.00 and the pIC50 (full-length human PLD1; [2]) was > 8.00.

For `C[C@@H](CN1CCC2(CC1)OC(=O)NN=C2c1ccc(F)cc1Cl)NC(=O)c1ncn[nH]1` [Example 95], the pIC50 (full-length human PLD2; [1]) was 5.21 and the pIC50 (full-length human PLD1; [2]) was 5.09.

For `CNC(=O)C(=O)N[C@@H](C)C[C@H]1CC[C@]2(CC1)OC(=O)NN=C2c1ccc(C(C)=O)cc1C` [Example 167], the pIC50 (full-length human PLD2; [1]) was > 8.00 and the pIC50 (full-length human PLD1; [2]) was 7.70.

With `CNC(=O)C(=O)N[C@@H](C)CN1CCC2(CC1)OC(=O)NN=C2c1cccn2nccc12` [Example 2-039] the pIC50 (full-length human PLD2; [1]) was 6.58 and the pIC50 (full-length human PLD1; [2]) was 6.82.

In the case of `Cc1cc(C(=O)N[C@@H](C)C[C@H]2CC[C@]3(CC2)OC(=O)NN=C3c2ccc(C#N)cc2Br)[nH]n1` [Example 199], the pIC50 (full-length human PLD2; [1]) was > 8.00 and the pIC50 (full-length human PLD1; [2]) was 8.00.

`C[C@@H](C[C@H]1CC[C@]2(CC1)OC(=O)NN=C2c1cccc(C#N)c1Br)NC(=O)c1cnn(C)c1` [Example 318] was tested, and the pIC50 (full-length human PLD2; [1]) was 7.39 and the pIC50 (full-length human PLD1; [2]) was 7.43.
